Consider 32 compounds from patent USRE49128E1, “Hydroxyl purine compounds and applications thereof” (GUANGDONG RAYNOVENT BIOTECH CO., LTD., priority 2014, dated 2022).

For data set [1], the target named is T1, recombinant full-length PDE2A protein (Homo sapiens, UniProt O00408).
T1 construct: Expression of recombinant full-length PDE2A protein in insect Sf9 cells; GST (N); made in house; host or cells: insect Sf9 cells (baculovirus)
Nature of the data set: Evaluation of PDE2 phosphodiesterase inhibitory activity in vitro (fluorescence polarization, Transcreener AMP2/GMP2). Type of data set: biochemical. Conditions: IC50 classes; substrate 1 μM cGMP; room temperature one hour. Here is the method: Experimental objective: The substituted Alexa Fluor 633 fluorescent dye on the AMP/GMP antibodies was detected by the fluorescence polarization analysis to determine the concentration of AMP/GMP produced in the reaction system, which was used to calculate the IC50 values of the test compounds against PDE2 phosphodiesterase.
The measured buffer solution: 10 mM Tris-HCl, pH 7.5, 5 mM MgCl2, 0.01% Brij 35, 1 mM DTT, and 1% DMSO.
Enzyme: Expression of recombinant full-length PDE2A protein in insect Sf9 cells using N-terminal GST-tag with baculovirus.
Transcreener® AMP^2/GMP^2 antibody, AMP2/GMP2 AlexaFluor 633 fluorescent dye.
The enzyme solution was prepared using freshly prepared buffer solution, and then added to the reaction holes, the DMSO solutions of the test compounds were added by the Echo550 non-contact nanoliter acoustic pipetting system, and then pre-incubated at room temperature for 10 minutes, the reaction was initiated by the addition of the substrate (1 μM cGMP), and then reacted at room temperature for one hour. And then the detection system (Transcreener® AMP^2/GMP^2 antibody, AMP2/GMP2 AlexaFluor 633 fluorescent dye) was added, reacted at room temperature for 90 minutes, the fluorescence polarization was detected using Ex/Em 620/688.
The fluorescence polarization intensity was converted to nM concentration by AMP/GMP standard curve, The relative enzyme activity relative to DMSO blank was calculated, IC50 values and curves were calculated using Prism software packages (GraphPad Software, San Diego Calif., USA).
Background: Fluorescence polarisation rises when a labelled molecule tumbles more slowly, as on binding a larger partner.

Data set [2] can be described thus: Pharmacokinetic evaluation of compounds in SD rats. Type of data set: in vivo, Sprague Dawley rats. The conditions noted are these: male, Sprague-Dawley, rat, plasma, single intravenous injection and oral administration. Here is the method:
Experimental objective: The pharmacokinetics of test compounds in SD rats.
Sprague Dawley rats (male, 200-300 g, 7-9 weeks old, Shanghai Slack).
The pharmacokinetic characteristics of rodents after intravenous and oral administration of the compounds were tested according to the standard protocol, in the experiment, the candidate compound was formulated into a clear solution, and the rats were given single intravenous injection and oral administration. Intravenous and oral solvents are a certain proportion of hydroxypropyl βcyclodextrin aqueous solution or physiological saline solution. Blood samples within 24 hours were collected, centrifuged (3000 g) for 15 minutes, the supernatant were separated to obtain the plasma samples, the protein was precipitated by adding a 4 times volume of acetonitrile solution that containing the internal standard, centrifuged and the supernatant was then centrifuged after adding equal volume of water, then the supernatant was injected, the plasma concentration was quantitatively analyzed by LC-MS/MS analysis, and pharmacokinetics parameters such as peak concentration, peak time, clearance rate, half-life, drug area under the curve, bioavailability etc. are calculated.

T1 sequence (O00408 whole entry, species assumed): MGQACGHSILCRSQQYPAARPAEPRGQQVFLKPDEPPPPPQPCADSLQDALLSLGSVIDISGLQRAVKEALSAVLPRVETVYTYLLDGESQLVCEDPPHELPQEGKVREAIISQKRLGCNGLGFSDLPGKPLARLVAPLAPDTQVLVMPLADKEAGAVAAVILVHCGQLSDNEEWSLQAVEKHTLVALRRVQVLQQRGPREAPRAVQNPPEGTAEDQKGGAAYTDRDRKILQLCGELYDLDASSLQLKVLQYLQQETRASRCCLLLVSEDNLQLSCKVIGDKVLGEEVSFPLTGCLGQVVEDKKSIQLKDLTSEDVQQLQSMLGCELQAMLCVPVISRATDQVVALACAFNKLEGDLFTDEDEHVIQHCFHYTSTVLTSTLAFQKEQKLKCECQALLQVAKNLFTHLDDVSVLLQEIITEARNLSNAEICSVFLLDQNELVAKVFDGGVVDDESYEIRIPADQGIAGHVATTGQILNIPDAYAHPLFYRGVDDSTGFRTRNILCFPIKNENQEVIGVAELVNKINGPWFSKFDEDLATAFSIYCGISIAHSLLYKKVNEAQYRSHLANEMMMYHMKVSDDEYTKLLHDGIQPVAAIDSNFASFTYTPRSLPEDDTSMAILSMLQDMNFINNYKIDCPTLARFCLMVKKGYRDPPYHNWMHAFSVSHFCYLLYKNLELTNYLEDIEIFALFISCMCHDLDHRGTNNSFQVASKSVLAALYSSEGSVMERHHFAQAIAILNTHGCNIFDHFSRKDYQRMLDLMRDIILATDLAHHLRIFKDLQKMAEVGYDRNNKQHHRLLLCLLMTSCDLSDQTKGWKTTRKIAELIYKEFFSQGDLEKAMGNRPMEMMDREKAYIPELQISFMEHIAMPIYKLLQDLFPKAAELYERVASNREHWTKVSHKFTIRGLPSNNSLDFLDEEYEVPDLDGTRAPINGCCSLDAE

Turning to “3,7-Dimethyl-1-[[3-[2,2,2-trifluoro-1-hydroxy-1-(trifluoromethyl)ethyl]cyclobutyl]methyl]purine-2,6-dione [Embodiment 8 isomer 1]”, the IC50 (as a rule, the concentration at which inhibition is half-maximal) in data set [1] lay within 1 to 10 µM.

In the case of “3,7-Dimethyl-1-[[3-[2,2,2-trifluoro-1-hydroxy-1-(trifluoromethyl)ethyl]cyclobutyl]methyl]purine-2,6-dione [Embodiment 8 isomer 2]”, in data set [1], the IC50 lay within 10 to 50 µM.

As to `Cn1cnc2c1c(=O)n(CC1CC(C(C)(O)C(F)(F)F)C1)c(=O)n2C` (single isomer, unassigned) [Embodiment 9 isomer 1], in data set [1], the IC50 lay in the range of 10 to 50 µM.

Consider `Cn1cnc2c1c(=O)n(CCC1CCC(O)(C(F)(F)F)CC1)c(=O)n2C` (single isomer, unassigned) [Embodiment 15 isomer 1], for which the IC50 in data set [1] was 1 to 10 µM.

On to `Cn1c(=O)n(CC2CCC(C)(O)CC2)c(=O)c2c1ncn2CC(F)(F)F` (single isomer, unassigned) [Embodiment 46 isomer 2], for which the IC50 in data set [1] is 10 to 50 µM.

On to `Cn1c(=O)n(CC2CCC(O)(C(F)(F)F)CC2)c(=O)c2c1ncn2CC1CC1` (single isomer, unassigned) [Embodiment 50 isomer 1, 7-(Cyclopropylmethyl)-1-((4-hydroxy-4-(trifluoromethyl)cyclohexyl)methyl)-3-methyl-1H-purine-2,6(3H,7H)-dione], for which the IC50 in data set [1] is 10 to 50 µM.

`Cn1c(=O)n(CC2CCC(C)(O)CC2)c(=O)c2c1ncn2CC1CC1` (single isomer, unassigned) [Embodiment 51 isomer 1]: in data set [1], the IC50 fell in the range of 10 to 50 µM.

As for `CC(C)Cn1cnc2c1c(=O)n(CC1CCC(O)(C(F)(F)F)CC1)c(=O)n2C` (single isomer, unassigned) [Embodiment 58 isomer 2, 1-((4-Hydroxy-4-(trifluoromethyl)cyclohexyl)methyl)-7-isobutyl-3-methyl-1H-purine-2,6(3H,7H)-dione], the bioavailability (in general, the share of a dose that reaches the circulation, judged against a reference dose that is usually intravenous) in data set [2] (read-out: Bioavailability F) was 42.6%. Further, the clearance in data set [2] (read-out: Clearance rate) was 71.6 mL/min/kg. Besides, in data set [2] (read-out: Concentration integration AUC), the AUC is 2.49 µM·h. Moreover, in data set [2] (read-out: Half-life T1/2 (converted)), the half-life was 33.6 min.

With `Cn1cnc2c1c(=O)n(CCCCC1(O)CC1)c(=O)n2C` [Embodiment 3, 1-(4-(1-Hydroxycyclopropyl)butyl)-3,7-dimethyl-1H-purine-2,6(3H,7H)-dione], in data set [1], the IC50 is 10 to 50 µM.

Consider `Cn1cnc2c1c(=O)n(CC1(C(C)(O)C(F)(F)F)CC1)c(=O)n2C` (centres unmarked) [Embodiment 4, 3,7-Dimethyl-1-((1-(1,1,1-trifluoro-2-hydroxypropan-2-yl)cyclopropyl)methyl)-1H-purine-2,6-(3H,7H)-dione], for which, in data set [1], the IC50 is 1 to 10 µM.

For the compound `Cn1cnc2c1c(=O)n(CC1CC(O)(C(F)(F)F)C1)c(=O)n2C` (centres unmarked) [Embodiment 5], the IC50 in data set [1] was in the range of 10 to 50 µM.

`CCC(O)(CC)C1CCC(Cn2c(=O)c3c(ncn3C)n(C)c2=O)CC1` (centres unmarked) [Embodiment 18, 1-((4-(3-Hydroxypentan-3-yl)-cyclohexyl)methyl)-3,7-dimethyl-1H-purine-2,6(3H,7H)-dione]: the IC50 in data set [1] fell in the range of 1 to 10 µM.

For `Cn1cnc2c1c(=O)n(C[C@H]1CC[C@H](C(C)(O)C(F)(F)F)CC1)c(=O)n2C` (stereo partly drawn) [Embodiment 19, 3,7-Dimethyl-1-[[trans-4-(2,2,2-trifluoro-1-hydroxy-1-methyl-ethyl)cyclohexyl]methyl]purine-2,6-dione], the IC50 in data set [1] is 10 to 50 µM.

As for `Cn1cnc2c1c(=O)n(C[C@H]1CC[C@H](C(O)(C(F)(F)F)C(F)(F)F)CC1)c(=O)n2C` [Embodiment 20, 3,7-Dimethyl-1-[trans-4-(2,2,2-trifluoro-1-hydroxy-1-trifluoromethyl-ethyl)cyclohexylmethyl]-3,7-dihydro-purine-2,6-dione], the IC50 in data set [1] lay in the range of 10 to 50 µM.

For `Cn1cnc2c1c(=O)n(C[C@H]1CC[C@H](C3(O)CC3)CC1)c(=O)n2C` [Embodiment 21, 1-[[trans-4-(1-hydroxycyclopropyl)cyclohexyl]methyl]-3,7-dimethylpurine-2,6-dione], the IC50 in data set [1] is 10 to 50 µM.

In the case of `CCC1(O)CCCC(CCn2c(=O)c3c(ncn3C)n(C)c2=O)C1` (centres unmarked) [Embodiment 22, 1-(2-(3-Ethyl-3-hydroxycyclohexyl)ethyl)-3,7-dimethyl-1H-purine-2,6(3H,7H)-dione], the IC50 in data set [1] fell in the range of 1 to 10 µM.

In the case of `CCC(O)(CC)c1ccc(Cn2c(=O)c3c(ncn3C)n(C)c2=O)cc1` [Embodiment 25, 1-(4-(3-Hydroxypentan-3-yl)benzyl)-3,7-dimethyl-1H-purine-2,6(3H,7H)-dione], the IC50 in data set [1] lay within 1 to 10 µM.

On to `Cn1cnc2c1c(=O)n(Cc1cccc(C(C)(O)C(F)(F)F)c1)c(=O)n2C` (centres unmarked) [Embodiment 26, 3,7-dimethyl-1-(3-(1,1,1-trifluoro-2-hydroxypropan-2-yl)benzyl)-1H-purine-2,6-(3H,7H)-dione], for which the IC50 in data set [1] was in the range of 10 to 50 µM.

Turning to `Cn1cnc2c1c(=O)n(Cc1cc(C(O)(C(F)(F)F)C(F)(F)F)no1)c(=O)n2C` [Embodiment 31], the IC50 in data set [1] fell in the range of 10 to 50 µM.

`Cn1cnc2c1c(=O)n(Cc1csc(C(C)(O)C(F)(F)F)n1)c(=O)n2C` (centres unmarked) [Embodiment 33, 3,7-Dimethyl-1-((2-(1,1,1-trifluoro-2-hydroxypropan-2-yl)thiazol-4-yl)methyl)-1H-purine-2,6-(3H,7H)-dione]: the IC50 in data set [1] was 10 to 50 µM.

In the case of `Cc1sc(C(C)(O)C(F)(F)F)nc1Cn1c(=O)c2c(ncn2C)n(C)c1=O` (centres unmarked) [Embodiment 34], the IC50 in data set [1] was 10 to 50 µM.

Regarding `Cn1cnc2c1c(=O)n(Cc1cnc(C(C)(O)C(F)(F)F)s1)c(=O)n2C` (centres unmarked) [Embodiment 35, 3,7-Dimethyl-1-((2-(1,1,1-trifluoro-2-hydroxypropan-2-yl)thiazol-5-yl)methyl)-1H-purine-2,6-(3H,7H)-dione], in data set [1], the IC50 lay within 10 to 50 µM.

As to `Cc1nc(C(C)(O)C(F)(F)F)sc1CCn1c(=O)c2c(ncn2C)n(C)c1=O` (centres unmarked) [Embodiment 36, 3,7-Dimethyl-1-(2-(4-methyl-2-(1,1,1-trifluoro-2-hydroxypropan-2-yl)thiazol-5-yl)ethyl)-1H-purine-2,6-(3H,7H)-dione], the IC50 in data set [1] is 10 to 50 µM.

As to `CCn1cnc2c1c(=O)n(CCCCC(O)(CC)CC)c(=O)n2C` [Embodiment 42, 7-Ethyl-1-(5-ethyl-5-hydroxyheptyl)-3-methyl-1H-purine-2,6(3H,7H)-dione], in data set [1], the IC50 lay in the range of 1 to 10 µM.

In the case of `CCn1cnc2c1c(=O)n(CCCCC(C)(O)C(F)(F)F)c(=O)n2C` (centres unmarked) [Embodiment 43, 7-Ethyl-3-methyl-1-(6,6,6-trifluoro-5-hydroxy-5-methylhexyl)-1H-purine-2,6(3H,7H)-dione], the IC50 in data set [1] was in the range of 10 to 50 µM.

As to `Cn1c(=O)n(CCCCC(C)(O)C(F)(F)F)c(=O)c2c1ncn2C1CC1` (centres unmarked) [Embodiment 47, 7-Cyclopropyl-3-methyl-1-(6,6,6-trifluoro-5-hydroxy-5-methylhexyl)-1H-purine-2,6(3H,7H)-dione], the IC50 in data set [1] lay in the range of 10 to 50 µM.

Turning to `CC(C)n1cnc2c1c(=O)n(CC1CCC(O)(C(F)(F)F)CC1)c(=O)n2C` (centres unmarked) [Embodiment 48], in data set [1], the IC50 was 10 to 50 µM.

For `COCC1(Cn2c(=O)c3c(ncn3CC3CC3)n(C)c2=O)CCC(O)(C(F)(F)F)CC1` (centres unmarked) [Embodiment 52], the IC50 in data set [1] lay in the range of 10 to 50 µM.

As for `Cn1c(=O)n(CC2(C)CCC(O)(C(F)(F)F)CC2)c(=O)c2c1ncn2CC1CC1` (centres unmarked) [Embodiment 53], the IC50 in data set [1] lay within 10 to 50 µM.

As for `Cc1sc(C(C)(O)C(F)(F)F)nc1Cn1c(=O)c2c(ncn2CC2CC2)n(C)c1=O` (centres unmarked) [Embodiment 54, 7-(Cyclopropylmethyl)-3-methyl-1-((5-methyl-2-(1,1,1-trifluoro-2-hydroxypropan-2-yl)thiazol-4-yl)methyl)-1H-purine-2,6-(3H,7H)-dione], in data set [1], the IC50 is 1 to 10 µM.

`Cn1c(=O)n(Cc2ccc(C(C)(O)C(F)(F)F)cn2)c(=O)c2c1ncn2CC1CC1` (centres unmarked) [Embodiment 56]: the IC50 in data set [1] lay in the range of 10 to 50 µM.

Consider `CC(C)Cn1cnc2c1c(=O)n(CC1CCC(O)(C(F)(F)F)CC1)c(=O)n2C` (centres unmarked) [Embodiment 57, 1-((4-Hydroxy-4-(trifluoromethyl)cyclohexyl)methyl)-7-isobutyl-3-methyl-1H-purine-2,6(3H,7H)-dione], for which, in data set [1], the IC50 lay in the range of 1 to 10 µM.
